Experiments:
[1] = Cyclic voltammetry, cathodic stability / solvent protection; details: comparable electrochemical potentials, FIGS. 6 and 7
Source text: Included representative data was acquired using a platinum counter electrode, a silver/silver nitrate (Ag/AgNO3) acetonitrile non-aqueous reference electrode, and a variety of working electrodes, which spans a wide-range of standard materials and protocols for electrochemical characterization of ionic liquids and organic plastic crystals. The hardware used was a Biologic potentiostat model SP-300.
A representative procedure using acetonitrile as a solvent and Ag as the working electrode was as follows: • 1. Measure the concentration of water in acetonitrile using Karl Fischer titration. • a. Adjust concentration to ˜1000 ppm water in acetonitrile solvent. • 2. Add diamondoid salt containing electrolyte to make a defined concentration in a 4-dram scintillation vial. • 3. Polish the working electrode using alumina slurry and a polishing pad. • 4. Polish the counter electrode and the Ag wire for the reference electrode. • 5. Clean the electrode surfaces and sonicate for ˜5 seconds. Dry the counter and Ag wire electrode. • 6. Prepare the non-aqueous reference electrode by adding new reference electrolyte consisting of 0.01M AgNO3 and 0.1M tetrabutylammonium tetrafluoroborate (TBA BF4) in acetonitrile. Add the silver wire. • 7. Assemble the electrochemical cell using a custom-printed electrochemical cap by adding the counter, reference, and working electrodes. • 8. […]

[2] = literature (Lassegues et al. 2009); cited from earlier work
[3] = Raman spectroscopy of the TFSI stretching mode; assay type: physicochemical; details: for TFSI Raman shift: neat TFSI salt of the cation, 532 nm laser
Source text: Raman spectra were taken on a LabRAM HR Evolution Horiba microscope using a 532 nm laser and grating of 1800 gr/mm. All Raman spectra were fitted and processed using Horiba's LabSpec6 software. Samples were sealed in glass slides inside of a nitrogen glove box using paraffin wax before spectra were taken.

[4] = Static 7Li NMR linewidth (lithium mobility) of mixtures with [Li][TFSI]; assay type: physicochemical; details: for Peak Width: static 7Li NMR, 0.1 mole fraction [Li][TFSI] mixtures with the TFSI salt of the cation
Procedure: All NMR measurements were carried out at 11.7 T using a broad band two channel 4 mm standard-bore cross-polarization magic-angle spinning (CP MAS) probe on a Bruker Avance III spectrometer with a proton radio frequency of 500.22 MHz, a ^13C radio frequency of 125.76 MHZ, a ^19F radio frequency 470.66 MHz, and a ^7Li radio frequency 194.40 MHz. The MAS rate was 10 KHz for the CP and ^19F experiments, and static for the ^7Li experiments. 4 mm zirconium rotors with Torlon caps and Viton O-rings were used. Approximately 100 mg of samples was packed into each rotor. All samples were prepared and sealed in a nitrogen glove box. The spinning axis was calibrated to the magic angle using KBr.
^7Li NMR spectra were acquired using […] the same instrumentation used for ^13C NMR. Protocols and pulse sequences were modified to enhance cross-polarization of ^7Li nuclei. Spectra shown represent 16 signal averages with a 0.05 second acquisition time and a 256 second recycle delay between scans. A pulse length of 2 μs was used to maintain a flip angle of less than π/6.
To evaluate the hypothesis that suppression of lithium coordination and incorporation of rigid molecular species can mobilize lithium, solid state NMR spectroscopy of ^7Li was performed to evaluate changes in lithium linewidths as a means of measuring changes in lithium mobility. Static ^7Li NMR spectra indicate the degree of chemical shift anisotropy that the lithium atoms experienced in each salt mixture. […] If the magnetic moment is dependent on the crystallographic orientation, then the lithium is more heavily interacting with the surrounding atoms.

[5] = Phase characterization / miscibility with [Li][TFSI] (DSC); assay type: physicochemical; details: for eutectic composition / miscibility gap onset (single phase solid to binary phase solid transition): mixtures with [Li][TFSI]
Procedure: The physical properties of the electrolytes, including solubility, thermal stability, phase transition temperatures, viscosity, and density were measured using a combination of accepted characterization techniques, including differential scanning calorimetry (DSC—measurement of phase transition temperatures), thermogravimetric analysis (TGA—measurement of thermal stability), particle-tracking micro-rheology (viscosity), and hydrometer (density). […] Phase transition temperatures, densities, and viscosities were seen to be dependent on the structures of diamondoid salts, as well as presence of additional “dopant” species, such as lithium salts, other diamondoid salts, or solvent molecules. Melting transitions ranged from below room temperature (below: 15° C.) to above 100° C., which spans the entire definition of an “ionic liquid,” range, as well as “organic plastic crystal” electrolyte range.
[Li][TFSI] and organic salt mixtures were melted together under vacuum at 100° C. The melting point of [DiamImMe][TFSI] and [AdImAd][TFSI] exceeded 100° C., so mixtures with those salts were melted and dried at 150° C. Heating was avoided above 150° C. as [Li][TFSI] is reported to undergo an oxidation reaction at temperatures approaching the melting point of pure [Li][TFSI]. After two days, samples were moved to a nitrogen glove box. Water and oxygen levels in the glovebox were monitored to be less than 0.5 ppm.
Differential scanning calorimetry (DSC) was performed using a TA instruments Q100. Samples were sealed in hermetic pans inside of a glovebox. [AdImMe][TFSI], [Me2AdImMe][TFSI], [DiamImMe][TFSI], and [AdImAd][TFSI] samples were equilibrated at −50° C., held at that temperature for three minutes, and then heated to 250° C. at a rate of 2° C. per minute. [C14MIm][TFSI] samples were cooled at a rate of 1° C. per minute to −50° C., held at that temperature for three minutes, and then heated to 250° C. at 2° C. per minute. […] Since no phase change was present, these faster scans were performed to look for the dissolving of [Li][TFSI].

Molecule: Cn1cc[n+](C23CC4CC(CC(C4)C2)C3)c1.[Br-]
- melting point: 230 to 234.1 °C

Molecule: 1-ethyl-3-methylimidazolium bis(trifluoromethylsulfonyl)imide
- cathodic stability [1]: pronounced cathodic decomposition
- phase transition via Raman spectroscopy [2]: 0.2 mole fraction [Li][TFSI]

Molecule: [Br-].c1c[n+](C23CC4CC(CC(C4)C2)C3)cn1C12CC3CC(CC(C3)C1)C2 [Compound 4, 1,3-bis(adamantan-1-yl)imidazolium bromide]
- melting point: 327.5 to 329.9 °C

Molecule: Cn1cc[n+](C23CC4C5CC6CC4C(C2)C(C6)C5C3)c1 [Compound 5, 3-(diamantan-4-yl)-1-methylimidazolium bis(trifluoromethane)sulfonimide]
- TFSI Raman shift [3]: 743 cm⁻¹
- Peak Width [4]: 1634 Hz
- miscibility with lithium bis(trifluorosulfonyl)imide ([5]; lithium salt in the diamondoid salt): up to 50 mol %
- eutectic composition [5]: ~0.5 mol fraction [Li][TFSI]
- miscibility gap onset (single phase solid to binary phase solid transition) [5]: 0.2 mol fraction [Li][TFSI]

Molecule: O=S(=O)([N-]S(=O)(=O)C(F)(F)F)C(F)(F)F.c1c[n+](C23CC4CC(CC(C4)C2)C3)cn1C12CC3CC(CC(C3)C1)C2 [[AdImAd][TFSI]]
- change of TFSI Raman spectrum in equimolar mixture with [Li][TFSI] [3]: essentially eliminated
- TFSI Raman shift [3]: ca. 740 cm^−1
- TFSI Raman shift ([3]; listed as AdImAd): 740 cm⁻¹
- Peak Width [4]: 3159 Hz

Molecule: C[n+]1ccn(C23CC4CC(CC(C4)C2)C3)c1.O=S(=O)([N-]S(=O)(=O)C(F)(F)F)C(F)(F)F [[AdImMe][TFSI]]
- change of TFSI Raman spectrum in equimolar mixture with [Li][TFSI] [3]: no statistical change
- TFSI Raman shift [3]: ca. 745 cm^−1
- TFSI Raman shift ([3]; listed as AdImMe): 745 cm⁻¹
- peak thinner than 0.1 mole fraction [Li][TFSI] in N-ethyl-N-methylpyrrolidinium bis(fluorosulfonyl)imide mixture ([4]; 0.1 mole fraction [Li][TFSI] mixture): 10%
- Peak Width [4]: 454 Hz
- eutectic composition [5]: ~0.5 mol fraction [Li][TFSI]
- miscibility gap onset (single phase solid to binary phase solid transition) [5]: 0.2 mol fraction [Li][TFSI]

Molecule: CCCCCCCCCCn1cc[n+](C)c1.O=S(=O)([N-]S(=O)(=O)C(F)(F)F)C(F)(F)F [[C10MIm][TFSI], 1-decyl-3-methylimidazolium TFSI, reference compound]
- TFSI Raman shift [3]: 742 cm⁻¹
- TFSI Raman shift ([3]; listed as [C10ImMe][TFSI]): ca. 742 cm^−1

Molecule: CCCCCCCCCCCCCCn1cc[n+](C)c1.O=S(=O)([N-]S(=O)(=O)C(F)(F)F)C(F)(F)F [[C14MIm][TFSI], 1-tetradecyl-3-methylimidazolium TFSI, reference compound]
- TFSI Raman shift [3]: 742 cm⁻¹
- TFSI Raman shift ([3]; listed as [C14ImMe][TFSI]): ca. 742 cm^−1

Molecule: O=S(=O)([N-]S(=O)(=O)C(F)(F)F)C(F)(F)F.[Li+] [[Li][TFSI], lithium bis(trifluorosulfonyl)imide, reference compound]
- TFSI Raman shift [3]: ca. 747 cm^−1
- TFSI Raman shift ([3]; listed as Li): 747 cm⁻¹

Molecule: C[n+]1ccn(C23CC4CC(C)(CC(C)(C4)C2)C3)c1.O=S(=O)([N-]S(=O)(=O)C(F)(F)F)C(F)(F)F [[Me2AdImMe][TFSI]]
- TFSI Raman shift [3]: 741 cm⁻¹

From patent US20240322218A1, “DIAMONDOID SALTS AND RELATED COMPOSITIONS” (Wisconsin Alumni Research Foundation, priority 2021, published 2024)
